Laboratory results as given in patent publication US12453709B2, “Compositions and methods for treating autism” (priority 2013, dated 2025).

What was measured:
Type in all cases: in vivo, human
[1] = test system: male patients diagnosed with autism; test: Study HT 02-121: Aberrant Behavior Checklist-Community (ABC-C); conditions: for ABC-C Hyperactivity and Noncompliance Mean Change from Baseline / ABC-C Hyperactivity and Noncompliance Treatment effect versus placebo / ABC-C Hyperactivity and Noncompliance change, median / ABC-C Inappropriate Speech Mean Change from Baseline / ABC-C Inappropriate Speech Treatment effect versus placebo / ABC-C Inappropriate Speech change, median / ABC-C Irritability and Agitation Mean Change from Baseline / ABC-C Irritability and Agitation Treatment effect versus placebo / ABC-C Irritability and Agitation change, median / ABC-C Lethargy and Social Withdrawal Mean Change from Baseline / ABC-C Lethargy and Social Withdrawal Treatment effect versus placebo / ABC-C Lethargy and Social Withdrawal change, median / ABC-C Stereotypic Behavior Mean Change from Baseline / ABC-C Stereotypic Behavior Treatment effect versus placebo / ABC-C Stereotypic Behavior change, median: Week 4/LOCF
Protocol: (§1) This clinical study was a randomized double-blind, placebo-controlled two-cohort, 4-week dose-escalation study that incorporated two open-label treatment groups to assess the safety and efficacy of L1-79 100 mg and 200 mg TID in male patients between the ages of […] years of age diagnosed with autism. The first cohort of 20 patients was comprised of three groups of patients: The first group of five patients received open-label L1-79 100 mg TID and underwent PK and EKG assessments. The remaining two groups in this cohort consisted of 15 patients randomized on a 2:1 basis to receive L1-79 100 mg TID or placebo. The PK and safety data from the open-label L1-79 100 mg TID group was submitted to FDA for review and acceptance before the second cohort was enrolled. The second cohort was procedurally identical to the first. The second cohort of 20 patients was comprised of the same three groups of patients but a dose of 200 mg TID was used instead of 100 mg TID. The key inclusion criteria were as follows: (1) males between 13 and 21 years of age, (2) DSM-5 compliant diagnosis of autism spectrum disorder, confirmed by the Autistic Diagnosis Interview Review (ADIR), and by an ADOS-2 score consistent with a diagnosis of autism, (3) must have been stable on no more than one concomitant medication and no planned changes in psychosocial interventions during the study.
(§2) The primary efficacy endpoint was the determination of the clinical improvement by the investigator as documented by the Clinical Global Impression (CGI) rating scales. Additional efficacy endpoints included: (1) changes from baseline in the Socialization and Communication Domains of the Vineland Adaptive Behavior Scales, Second Edition (VABS II) parent/caregiver rating form, (2) changes from baseline in the ADOS-2 Total Score and subscores, (3) changes in the Social Responsiveness Scale, Second Edition (SRS-2) Total Score and subscales, (4) changes in the ABC-C domains, (5) changes in the Repetitive Behavior Scale-Revised (RBS-R) Total Score and subscales. Given the exploratory design of this study only descriptive statistics were planned.
(§3) In the preliminary study, all forms were completed at the study site in the presence of the investigator. In Cohort 1 of the present study, the VABS-II, SRS-2, ABC-C and RBS-R were filled out at home by the patient/patient's families prior to treatment visits and returned at treatment visits in order to expedite the execution of the study. […]

[2] = test system: male patients diagnosed with autism; test: Study HT 02-121: Repetitive Behavior Scale-Revised (RBS-R); conditions: for RBS-R Compulsive Behavior Mean Change from Baseline / RBS-R Compulsive Behavior Treatment effect versus placebo / RBS-R Compulsive Behavior change, median / RBS-R Restricted Behavior Mean Change from Baseline / RBS-R Restricted Behavior Treatment effect versus placebo / RBS-R Restricted Behavior change, median / RBS-R Ritualistic Behavior Mean Change from Baseline / RBS-R Ritualistic Behavior Treatment effect versus placebo / RBS-R Ritualistic Behavior change, median / RBS-R Sameness Behavior Mean Change from Baseline / RBS-R Sameness Behavior Treatment effect versus placebo / RBS-R Sameness Behavior change, median / RBS-R Self Injurious Behavior Mean Change from Baseline / RBS-R Self Injurious Behavior Treatment effect versus placebo / RBS-R Self Injurious Behavior change, median / RBS-R Stereotypic Behavior Mean Change from Baseline / RBS-R Stereotypic Behavior Treatment effect versus placebo / RBS-R Stereotypic Behavior change, median / RBS-R Total Score Mean Change from Baseline / RBS-R Total Score Treatment effect versus placebo / RBS-R Total Score change, median: Week 4/LOCF
Protocol: as §1, §2, §3

[3] = test system: male patients diagnosed with autism; test: Study HT 02-121: Autism Diagnostic Observation Schedule (ADOS-2); conditions: for ADOS-2 Restricted and Repetitive Behavior Mean Change from Screening / ADOS-2 Restricted and Repetitive Behavior Treatment effect versus placebo / ADOS-2 Restricted and Repetitive Behavior change, median / ADOS-2 Social Affect Mean Change from Screening / ADOS-2 Social Affect Treatment effect versus placebo / ADOS-2 Social Affect change, median / ADOS-2 Total Score Mean Change from Screening / ADOS-2 Total Score Treatment effect versus placebo / ADOS-2 Total Score change from Screening, median: Week 4/LOCF
Protocol: as §1, §2
In the preliminary study, all forms were completed at the study site in the presence of the investigator. In Cohort 1 of the present study, the VABS-II, SRS-2, ABC-C and RBS-R were filled out at home by the patient/patient's families prior to treatment visits and returned at treatment visits in order to expedite the execution of the study.

## CC(N)(Cc1ccc(O)cc1)C(=O)O (racemic) [L1-79, α-methyl-DL-tyrosine]
[1]; 200 mg group
  ABC-C Lethargy and Social Withdrawal / Inappropriate Speech: responder analyses vs placebo: greater tendency for patients to respond with improvement or no worsening
[1]; DB 100 mg TID
  ABC-C Hyperactivity and Noncompliance Mean Change from Baseline: 0.4
  ABC-C Hyperactivity and Noncompliance Treatment effect versus placebo: 4.9
  ABC-C Hyperactivity and Noncompliance change, median: 0, 0, 3
  ABC-C Inappropriate Speech Mean Change from Baseline: 0.0
  ABC-C Inappropriate Speech Treatment effect versus placebo: 1.6
  ABC-C Inappropriate Speech change, median: −2, 0, 1
  ABC-C Irritability and Agitation Mean Change from Baseline: −0.9
  ABC-C Irritability and Agitation Treatment effect versus placebo: 2.5
  ABC-C Irritability and Agitation change, median: −2, −1, 0
  ABC-C Lethargy and Social Withdrawal Mean Change from Baseline: −1.6
  ABC-C Lethargy and Social Withdrawal Treatment effect versus placebo: 3.9
  ABC-C Lethargy and Social Withdrawal change, median: −2, −1, 1
  ABC-C Stereotypic Behavior Mean Change from Baseline: 1.9
  ABC-C Stereotypic Behavior Treatment effect versus placebo: 2.5
  ABC-C Stereotypic Behavior change, median: 0, 0, 4
[1]; DB 200 mg TID
  ABC-C Hyperactivity and Noncompliance Mean Change from Baseline: −4.0
  ABC-C Hyperactivity and Noncompliance Treatment effect versus placebo: 0.5
  ABC-C Hyperactivity and Noncompliance change, median: −7, −1, 0
  ABC-C Inappropriate Speech Mean Change from Baseline: −2.0
  ABC-C Inappropriate Speech Treatment effect versus placebo: −0.4
  ABC-C Inappropriate Speech change, median: −4, −1, 0
  ABC-C Irritability and Agitation Mean Change from Baseline: −2.2
  ABC-C Irritability and Agitation Treatment effect versus placebo: 1.2
  ABC-C Irritability and Agitation change, median: −7, −2, 0
  ABC-C Lethargy and Social Withdrawal Mean Change from Baseline: −4.5
  ABC-C Lethargy and Social Withdrawal Treatment effect versus placebo: 1.0
  ABC-C Lethargy and Social Withdrawal change, median: −9, −2, 0
  ABC-C Stereotypic Behavior Mean Change from Baseline: −1.7
  ABC-C Stereotypic Behavior Treatment effect versus placebo: −1.1
  ABC-C Stereotypic Behavior change, median: −3, −1, 0
[1]; L1-79 200 mg
  patients with stability or improvement of ABC-C social and speech domains: 90 to 100%
[2]; DB 100 mg TID
  RBS-R Compulsive Behavior Mean Change from Baseline: −1.2
  RBS-R Compulsive Behavior Treatment effect versus placebo: 0.3
  RBS-R Compulsive Behavior change, median: −2, 0, 1
  RBS-R Restricted Behavior Mean Change from Baseline: 1.3
  RBS-R Restricted Behavior Treatment effect versus placebo: 2.9
  RBS-R Restricted Behavior change, median: 0, 1, 1
  RBS-R Ritualistic Behavior Mean Change from Baseline: 0.1
  RBS-R Ritualistic Behavior Treatment effect versus placebo: 3.8
  RBS-R Ritualistic Behavior change, median: −1, 0, 2
  RBS-R Sameness Behavior Mean Change from Baseline: −0.7
  RBS-R Sameness Behavior Treatment effect versus placebo: 2.2
  RBS-R Sameness Behavior change, median: −1, −1, 0
  RBS-R Self Injurious Behavior Mean Change from Baseline: −2.2
  RBS-R Self Injurious Behavior Treatment effect versus placebo: −0.1
  RBS-R Self Injurious Behavior change, median: −2, 0, 0
  RBS-R Stereotypic Behavior Mean Change from Baseline: −0.6
  RBS-R Stereotypic Behavior Treatment effect versus placebo: −0.1
  RBS-R Stereotypic Behavior change, median: 0, 0, 0
  RBS-R Total Score Mean Change from Baseline: −3.2
  RBS-R Total Score Treatment effect versus placebo: 7.8
  RBS-R Total Score change, median: −6, −4, −1
[2]; DB 200 mg TID
  RBS-R Compulsive Behavior Mean Change from Baseline: −2.7
  RBS-R Compulsive Behavior Treatment effect versus placebo: −1.2
  RBS-R Compulsive Behavior change, median: −3, 0, 0
  RBS-R Restricted Behavior Mean Change from Baseline: −2.5
  RBS-R Restricted Behavior Treatment effect versus placebo: −1.0
  RBS-R Restricted Behavior change, median: −5, −1, 0
  RBS-R Ritualistic Behavior Mean Change from Baseline: −3.1
  RBS-R Ritualistic Behavior Treatment effect versus placebo: 0.6
  RBS-R Ritualistic Behavior change, median: −5, −1, 0
  RBS-R Sameness Behavior Mean Change from Baseline: 4.2
  RBS-R Sameness Behavior Treatment effect versus placebo: −1.3
  RBS-R Sameness Behavior change, median: −9, 0, 0
  RBS-R Self Injurious Behavior Mean Change from Baseline: −1.7
  RBS-R Self Injurious Behavior Treatment effect versus placebo: 0.4
  RBS-R Self Injurious Behavior change, median: −1, 0, 0
  RBS-R Stereotypic Behavior Mean Change from Baseline: −1.8
  RBS-R Stereotypic Behavior Treatment effect versus placebo: −1.4
  RBS-R Stereotypic Behavior change, median: −5, 0, 0
  RBS-R Total Score Mean Change from Baseline: −16.1
  RBS-R Total Score Treatment effect versus placebo: −5.1
  RBS-R Total Score change, median: −28, −2, 0
[2]; L1-79 200 mg
  RBS-R Total Score compared to placebo: mean improvements
[2]; L1-79 200 mg, placebo 78%
  RBS-R Total Score responders (improvement or stabilization of symptoms): 91%
[3]; DB 100 mg TID
  ADOS-2 Restricted and Repetitive Behavior Mean Change from Screening: 0.3
  ADOS-2 Restricted and Repetitive Behavior Treatment effect versus placebo: 0.5
  ADOS-2 Restricted and Repetitive Behavior change, median: −1, 0, 1
  ADOS-2 Social Affect Mean Change from Screening: −0.9
  ADOS-2 Social Affect Treatment effect versus placebo: −1.0
  ADOS-2 Social Affect change, median: −2, 0, 1
  ADOS-2 Total Score Mean Change from Screening: −0.6
  ADOS-2 Total Score Treatment effect versus placebo: −0.6
  ADOS-2 Total Score change from Screening, median: −1, 0, 0
[3]; DB 200 mg TID
  ADOS-2 Restricted and Repetitive Behavior Mean Change from Screening: −1.0
  ADOS-2 Restricted and Repetitive Behavior Treatment effect versus placebo: −0.9
  ADOS-2 Restricted and Repetitive Behavior change, median: −2, −1, 0
  ADOS-2 Social Affect Mean Change from Screening: 0.0
  ADOS-2 Social Affect Treatment effect versus placebo: −0.1
  ADOS-2 Social Affect change, median: −1, 1, 1
  ADOS-2 Total Score Mean Change from Screening: −1.0
  ADOS-2 Total Score Treatment effect versus placebo: −1.0
  ADOS-2 Total Score change from Screening, median: −1, −1, 0
[3]; less than one month of treatment
  improvement from baseline in ADOS-2 scores: nearly one point
